Source: article PMC9950205, “Efficacy, safety, and pharmacokinetics of teduglutide in adult Japanese patients with short bowel syndrome and intestinal failure: two phase III studies with an extension” (Surgery Today, 2022)

Test system: adult Japanese patients with SBS-IF
Test: Safety: treatment-emergent adverse events (TEAEs, TESAEs)
Format: in vivo
Text: Safety analyses included the monitoring of adverse events (AEs), body weight, BMI, vital signs, 12-lead electrocardiogram (ECG), serum biochemistry, hematology, and presence of antibodies to teduglutide. AEs were coded using the Medical Dictionary for Regulatory Activities versions 17.1 (TED-C14-004) and 21.0 (SHP633-306 and SHP633-307). Specifically, AEs were treatment-emergent AEs (TEAEs), defined as any unfavorable and unintended sign (including any abnormal laboratory finding), symptom, or disease that occurred during treatment with teduglutide, whether or not the event was considered to be related to the study drug by the clinical study investigator. AEs were also categorized as mild, moderate, or severe. […] AEs were considered related to treatment with teduglutide, or its administration, based on the investigator's medical judgment.

[1] = > 24 weeks (SHP633-307 and TED-C14-004), 0.05 mg/kg/day

SMILES: CC[C@H](C)[C@H](NC(=O)[C@H](Cc1ccccc1)NC(=O)[C@H](CC(=O)O)NC(=O)[C@H](CCCNC(=N)N)NC(=O)[C@H](C)NC(=O)[C@H](C)NC(=O)[C@H](CC(C)C)NC(=O)[C@H](CC(N)=O)NC(=O)[C@H](CC(=O)O)NC(=O)[C@H](CC(C)C)NC(=O)[C@@H](NC(=O)[C@@H](NC(=O)[C@H](CC(N)=O)NC(=O)[C@H](CCSC)NC(=O)[C@H](CCC(=O)O)NC(=O)[C@H](CC(=O)O)NC(=O)[C@H](CO)NC(=O)[C@H](Cc1ccccc1)NC(=O)[C@H](CO)NC(=O)CNC(=O)[C@H](CC(=O)O)NC(=O)CNC(=O)[C@@H](N)Cc1c[nH]cn1)[C@@H](C)O)[C@@H](C)CC)C(=O)N[C@@H](CC(N)=O)C(=O)N[C@@H](Cc1c[nH]c2ccccc12)C(=O)N[C@@H](CC(C)C)C(=O)N[C@H](C(=O)N[C@@H](CCC(N)=O)C(=O)N[C@H](C(=O)N[C@@H](CCCCN)C(=O)N[C@H](C(=O)N[C@H](C(=O)N[C@@H](CC(=O)O)C(=O)O)[C@@H](C)O)[C@@H](C)CC)[C@@H](C)O)[C@@H](C)CC [teduglutide]
- Abdominal distension: Events [1]: 2 n
- Abdominal distension: Patients [1]: 2 (13.3) n (%)
- Abdominal pain: Events [1]: 1 n
- Abdominal pain: Patients [1]: 1 (6.7) n (%)
- Anal abscess: Events [1]: 3 n
- Anal abscess: Patients [1]: 3 (20.0) n (%)
- Anemia: Events [1]: 0 n
- Anemia: Patients [1]: 0 n (%)
- Any TEAE: Events [1]: 199 n
- Any TEAE: Patients [1]: 11 (73.3) n (%)
- Arthralgia: Events [1]: 5 n
- Arthralgia: Patients [1]: 5 (33.3) n (%)
- Back pain: Events [1]: 1 n
- Back pain: Patients [1]: 1 (6.7) n (%)
- Blood and lymphatic system disorders: Events [1]: 0 n
- Blood and lymphatic system disorders: Patients [1]: 0 n (%)
- Catheter site infection: Events [1]: 1 n
- Catheter site infection: Patients [1]: 1 (6.7) n (%)
- Catheter site pain: Events [1]: 4 n
- Catheter site pain: Patients [1]: 2 (13.3) n (%)
- Dehydration: Events [1]: 2 n
- Dehydration: Patients [1]: 2 (13.3) n (%)
- Dermatitis contact: Events [1]: 4 n
- Dermatitis contact: Patients [1]: 4 (26.7) n (%)
- Device occlusion (central venous catheter for PS): Events [1]: 3 n
- Device occlusion (central venous catheter for PS): Patients [1]: 2 (13.3) n (%)
- Device-related infection (central venous catheter for PS): Events [1]: 24 n
- Device-related infection (central venous catheter for PS): Patients [1]: 7 (46.7) n (%)
- Diarrhea: Events [1]: 4 n
- Diarrhea: Patients [1]: 3 (20.0) n (%)
- Dry skin: Events [1]: 1 n
- Dry skin: Patients [1]: 1 (6.7) n (%)
- Enteritis: Events [1]: 1 n
- Enteritis: Patients [1]: 1 (6.7) n (%)
- Enterocolitis: Events [1]: 2 n
- Enterocolitis: Patients [1]: 2 (13.3) n (%)
- Eye disorder: Events [1]: 5 n
- Eye disorder: Patients [1]: 1 (6.7) n (%)
- Gastrointestinal disorders: Events [1]: 33 n
- Gastrointestinal disorders: Patients [1]: 8 (53.3) n (%)
- General disorders and administration site conditions: Events [1]: 16 n
- General disorders and administration site conditions: Patients [1]: 5 (33.3) n (%)
- Headache: Events [1]: 11 n
- Headache: Patients [1]: 5 (33.3) n (%)
- Hematuria: Events [1]: 2 n
- Hematuria: Patients [1]: 2 (13.3) n (%)
- Hemorrhage subcutaneous: Events [1]: 2 n
- Hemorrhage subcutaneous: Patients [1]: 2 (13.3) n (%)
- Hepatobiliary disorders: Events [1]: 2 n
- Hepatobiliary disorders: Patients [1]: 2 (13.3) n (%)
- Hypersensitivity: Events [1]: 2 n
- Hypersensitivity: Patients [1]: 2 (13.3) n (%)
- Hypozincemia: Events [1]: 1 n
- Hypozincemia: Patients [1]: 1 (6.7) n (%)
- Immune system disorders: Events [1]: 2 n
- Immune system disorders: Patients [1]: 2 (13.3) n (%)
- Infections and infestations: Events [1]: 62 n
- Infections and infestations: Patients [1]: 10 (66.7) n (%)
- Influenza: Events [1]: 18 n
- Influenza: Patients [1]: 5 (33.3) n (%)
- Injection site reaction: Events [1]: 0 n
- Injection site reaction: Patients [1]: 0 n (%)
- Injury, poisoning, and procedural complications: Events [1]: 1 n
- Injury, poisoning, and procedural complications: Patients [1]: 1 (6.7) n (%)
- Insomnia: Events [1]: 2 n
- Insomnia: Patients [1]: 2 (13.3) n (%)
- Investigations: Events [1]: 5 n
- Investigations: Patients [1]: 2 (13.3) n (%)
- Metabolism and nutrition disorders: Events [1]: 7 n
- Metabolism and nutrition disorders: Patients [1]: 5 (33.3) n (%)
- Musculoskeletal and connective tissue disorders: Events [1]: 10 n
- Musculoskeletal and connective tissue disorders: Patients [1]: 6 (40.0) n (%)
- Nasopharyngitis: Events [1]: 18 n
- Nasopharyngitis: Patients [1]: 5 (33.3) n (%)
- Nausea: Events [1]: 7 n
- Nausea: Patients [1]: 3 (20.0) n (%)
- Nervous system disorders: Events [1]: 19 n
- Nervous system disorders: Patients [1]: 7 (46.7) n (%)
- Oropharyngeal pain: Events [1]: 3 n
- Oropharyngeal pain: Patients [1]: 3 (20.0) n (%)
- Pruritus: Events [1]: 1 n
- Pruritus: Patients [1]: 1 (6.7) n (%)
- Psychiatric disorders: Events [1]: 4 n
- Psychiatric disorders: Patients [1]: 3 (20.0) n (%)
- Pyrexia: Events [1]: 5 n
- Pyrexia: Patients [1]: 4 (26.7) n (%)
- Renal and urinary disorders: Events [1]: 4 n
- Renal and urinary disorders: Patients [1]: 3 (20.0) n (%)
- Respiratory, thoracic, and mediastinal disorders: Events [1]: 8 n
- Respiratory, thoracic, and mediastinal disorders: Patients [1]: 3 (20.0) n (%)
- Skin and subcutaneous tissue disorders: Events [1]: 13 n
- Skin and subcutaneous tissue disorders: Patients [1]: 7 (46.7) n (%)
- Somnolence: Events [1]: 3 n
- Somnolence: Patients [1]: 3 (20.0) n (%)
- Stomatitis: Events [1]: 3 n
- Stomatitis: Patients [1]: 3 (20.0) n (%)
- Upper respiratory tract inflammation: Events [1]: 1 n
- Upper respiratory tract inflammation: Patients [1]: 1 (6.7) n (%)
- Vascular disorders: Events [1]: 4 n
- Vascular disorders: Patients [1]: 3 (20.0) n (%)
- Vascular pain: Events [1]: 3 n
- Vascular pain: Patients [1]: 2 (13.3) n (%)
- Vomiting: Events [1]: 1 n
- Vomiting: Patients [1]: 1 (6.7) n (%)
- TESAEs considered to be related to teduglutide (SHP633-306 or SHP633-307): No TESAEs
- Deaths during the study (TED-C14-004, one patient, acute hepatic and renal failure 52 days after teduglutide discontinuation): only death
- Abdominal distension: Events (Total, 0.05 mg/kg/day): 6 n
- Abdominal distension: Patients (Total, 0.05 mg/kg/day): 6 (33.3) n (%)
- Abdominal pain: Events (Total, 0.05 mg/kg/day): 6 n
- Abdominal pain: Patients (Total, 0.05 mg/kg/day): 5 (27.8) n (%)
- Anal abscess: Events (Total, 0.05 mg/kg/day): 3 n
- Anal abscess: Patients (Total, 0.05 mg/kg/day): 3 (16.7) n (%)
- Anemia: Events (Total, 0.05 mg/kg/day): 2 n
- Anemia: Patients (Total, 0.05 mg/kg/day): 2 (11.1) n (%)
- Any TEAE: Events (Total, 0.05 mg/kg/day): 320 n
- Any TEAE: Patients (Total, 0.05 mg/kg/day): 18 (100.0) n (%)
- Arthralgia: Events (Total, 0.05 mg/kg/day): 5 n
- Arthralgia: Patients (Total, 0.05 mg/kg/day): 5 (27.8) n (%)
- Back pain: Events (Total, 0.05 mg/kg/day): 2 n
- Back pain: Patients (Total, 0.05 mg/kg/day): 2 (11.1) n (%)
- Blood and lymphatic system disorders: Events (Total, 0.05 mg/kg/day): 4 n
- Blood and lymphatic system disorders: Patients (Total, 0.05 mg/kg/day): 3 (16.7) n (%)
- Catheter site infection: Events (Total, 0.05 mg/kg/day): 2 n
- Catheter site infection: Patients (Total, 0.05 mg/kg/day): 2 (11.1) n (%)
- Catheter site pain: Events (Total, 0.05 mg/kg/day): 5 n
- Catheter site pain: Patients (Total, 0.05 mg/kg/day): 2 (11.1) n (%)
- Dehydration: Events (Total, 0.05 mg/kg/day): 4 n
- Dehydration: Patients (Total, 0.05 mg/kg/day): 2 (11.1) n (%)
- Dermatitis contact: Events (Total, 0.05 mg/kg/day): 4 n
- Dermatitis contact: Patients (Total, 0.05 mg/kg/day): 4 (22.2) n (%)
- Device occlusion (central venous catheter for PS): Events (Total, 0.05 mg/kg/day): 6 n
- Device occlusion (central venous catheter for PS): Patients (Total, 0.05 mg/kg/day): 3 (16.7) n (%)
- Device-related infection (central venous catheter for PS): Events (Total, 0.05 mg/kg/day): 33 n
- Device-related infection (central venous catheter for PS): Patients (Total, 0.05 mg/kg/day): 10 (55.6) n (%)
- Diarrhea: Events (Total, 0.05 mg/kg/day): 5 n
- Diarrhea: Patients (Total, 0.05 mg/kg/day): 4 (22.2) n (%)
- Dry skin: Events (Total, 0.05 mg/kg/day): 2 n
- Dry skin: Patients (Total, 0.05 mg/kg/day): 2 (11.1) n (%)
- Enteritis: Events (Total, 0.05 mg/kg/day): 2 n
- Enteritis: Patients (Total, 0.05 mg/kg/day): 2 (11.1) n (%)
- Enterocolitis: Events (Total, 0.05 mg/kg/day): 4 n
- Enterocolitis: Patients (Total, 0.05 mg/kg/day): 3 (16.7) n (%)
- Eye disorder: Events (Total, 0.05 mg/kg/day): 7 n
- Eye disorder: Patients (Total, 0.05 mg/kg/day): 3 (16.7) n (%)
- Gastrointestinal disorders: Events (Total, 0.05 mg/kg/day): 60 n
- Gastrointestinal disorders: Patients (Total, 0.05 mg/kg/day): 15 (83.3) n (%)
- General disorders and administration site conditions: Events (Total, 0.05 mg/kg/day): 37 n
- General disorders and administration site conditions: Patients (Total, 0.05 mg/kg/day): 10 (55.6) n (%)
- Headache: Events (Total, 0.05 mg/kg/day): 14 n
- Headache: Patients (Total, 0.05 mg/kg/day): 7 (38.9) n (%)
- Hematuria: Events (Total, 0.05 mg/kg/day): 3 n
- Hematuria: Patients (Total, 0.05 mg/kg/day): 3 (16.7) n (%)
- Hemorrhage subcutaneous: Events (Total, 0.05 mg/kg/day): 3 n
- Hemorrhage subcutaneous: Patients (Total, 0.05 mg/kg/day): 2 (11.1) n (%)
- Hepatobiliary disorders: Events (Total, 0.05 mg/kg/day): 5 n
- Hepatobiliary disorders: Patients (Total, 0.05 mg/kg/day): 4 (22.2) n (%)
- Hypersensitivity: Events (Total, 0.05 mg/kg/day): 2 n
- Hypersensitivity: Patients (Total, 0.05 mg/kg/day): 2 (11.1) n (%)
- Hypozincemia: Events (Total, 0.05 mg/kg/day): 2 n
- Hypozincemia: Patients (Total, 0.05 mg/kg/day): 2 (11.1) n (%)
